Consider 27 molecules from patent US9133163B2, “Dihydropyrazole GPR40 modulators” (Bristol-Myers Squibb Company, priority 2012, dated 2015).

The structures appear in SMILES notation.

A word on the EC50: it is the concentration needed to bring the measured effect to its halfway point.

Sequence of hGPR40 (O14842 whole entry): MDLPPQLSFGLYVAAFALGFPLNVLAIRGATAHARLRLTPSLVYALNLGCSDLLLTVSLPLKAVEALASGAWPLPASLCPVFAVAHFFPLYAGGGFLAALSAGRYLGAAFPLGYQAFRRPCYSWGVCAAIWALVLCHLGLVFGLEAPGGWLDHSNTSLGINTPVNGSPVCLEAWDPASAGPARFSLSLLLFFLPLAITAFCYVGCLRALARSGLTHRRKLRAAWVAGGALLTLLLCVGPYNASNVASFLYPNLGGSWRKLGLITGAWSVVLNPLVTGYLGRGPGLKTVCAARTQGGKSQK

This assay has as its target hGPR40 (Homo sapiens, UniProt O14842). In words: FDSS-based intracellular calcium assay. The class given is cell-based. More on the design: 3xFLAG; expressed in transfected cells. To be noted: intracellular Ca2+ response, cells expressing GPR40. As for the experimental part: FDSS-Based Intracellular Calcium Assay
Compounds are dissolved in DMSO and diluted to desired concentrations with assay buffer and added to the cells as 3× solution (20 μL per well). Run fluorescence/luminescence reader FDSS (Hamamatsu) to read intracellular Ca^2+ response.
For `C[C@@H]1C(C(F)(F)F)=NN(c2ccc(OC3CCN(c4ncccc4F)CC3)cc2)[C@H]1CC(=O)O` [Example 41, 2-((4S,5S)-1-(4-((1-(3-Fluoropyridin-2-yl)piperidin-4-yl)oxy)phenyl)-4-methyl-3-(trifluoromethyl)-4,5-dihydro-1H-pyrazol-5-yl)acetic acid], the EC50 was determined as 0.628 µM.

Consider `Cc1cccc(F)c1N1CCC(Oc2ccc(N3N=C(C(F)(F)F)[C@@H](C)[C@@H]3CC(=O)O)cc2)CC1` [Example 42, 2-((4S,5S)-1-(4-((1-(2-Fluoro-6-methylphenyl)piperidin-4-yl)oxy)phenyl)-4-methyl-3-(trifluoromethyl)-4,5-dihydro-1H-pyrazol-5-yl)acetic acid], for which the EC50 came out at 0.796 µM.

For the molecule `Cc1ccc(C)c(N2CCC(Oc3ccc(N4N=C(C(F)(F)F)[C@@H](C)[C@@H]4CC(=O)O)cc3)CC2)c1` [Example 43, 2-((4S,5S)-1-(4-((1-(2,5-Dimethylphenyl)piperidin-4-yl)oxy)phenyl)-4-methyl-3-(trifluoromethyl)-4,5-dihydro-1H-pyrazol-5-yl)acetic acid], the EC50 is 1.07 µM.

On to `Cc1cccc(C)c1N1CCC(Oc2ccc(N3N=C(C(F)(F)F)[C@@H](C)[C@@H]3CC(=O)O)cc2)CC1` [Example 44, 2-((4S,5S)-1-(4-((1-(2,6-Dimethylphenyl)piperidin-4-yl)oxy)phenyl)-4-methyl-3-(trifluoromethyl)-4,5-dihydro-1H-pyrazol-5-yl)acetic acid], for which the EC50 is 1.34 µM.

`COc1ccnc(N2CCC(Oc3ccc(N4N=C(C(F)(F)F)[C@@H](C)[C@@H]4CC(=O)O)cc3)CC2)c1` [Example 45, 2-((4S,5S)-1-(4-((1-(4-Methoxypyridin-2-yl)piperidin-4-yl)oxy)phenyl)-4-methyl-3-(trifluoromethyl)-4,5-dihydro-1H-pyrazol-5-yl)acetic acid]: the EC50 was determined as 1.52 µM.

Regarding `COc1ccccc1N1CCC(Oc2ccc(N3N=C(C(F)(F)F)[C@@H](C)[C@@H]3CC(=O)O)cc2)CC1` [Example 46, 2-((4S,5S)-1-(4-((1-(2-Methoxyphenyl)piperidin-4-yl)oxy)phenyl)-4-methyl-3-(trifluoromethyl)-4,5-dihydro-1H-pyrazol-5-yl)acetic acid], the EC50 came to 1.7 µM.

For `COc1cc(N2CCC(Oc3ccc(N4N=C(C(F)(F)F)[C@@H](C)[C@@H]4CC(=O)O)cc3)CC2)ccn1` [Example 47, 2-((4S,5S)-1-(4-((1-(2-Methoxypyridin-4-yl)piperidin-4-yl)oxy)phenyl)-4-methyl-3-(trifluoromethyl)-4,5-dihydro-1H-pyrazol-5-yl)acetic acid], the EC50 was 1.91 µM.

Turning to `C[C@@H]1C(C(F)(F)F)=NN(c2ccc(OC3CCN(c4cccc(F)c4)CC3)cc2)[C@H]1CC(=O)O` [Example 48, 2-((4S,5S)-1-(4-((1-(3-Fluorophenyl)piperidin-4-yl)oxy)phenyl)-4-methyl-3-(trifluoromethyl)-4,5-dihydro-1H-pyrazol-5-yl)acetic acid], the EC50 stood at 2.27 µM.

Take `C[C@@H]1C(C(F)(F)F)=NN(c2ccc(OC3CCN(c4ccc(F)cc4)CC3)cc2)[C@H]1CC(=O)O` [Example 49, 2-((4S,5S)-1-(4-((1-(4-Fluorophenyl)piperidin-4-yl)oxy)phenyl)-4-methyl-3-(trifluoromethyl)-4,5-dihydro-1H-pyrazol-5-yl)acetic acid]: the EC50 worked out at 2.65 µM.

With `C[C@@H]1C(C(F)(F)F)=NN(c2ccc(OC3CCN(c4cccc(Cl)c4)CC3)cc2)[C@H]1CC(=O)O` [Example 50, 2-((4S,5S)-1-(4-((1-(3-Chlorophenyl)piperidin-4-yl)oxy)phenyl)-4-methyl-3-(trifluoromethyl)-4,5-dihydro-1H-pyrazol-5-yl)acetic acid], the EC50 was found to be 2.84 µM.

Take `COc1cc(C)c(N2CCC(Oc3ccc(N4N=C(C(F)(F)F)[C@@H](C)[C@@H]4CC(=O)O)cc3)CC2)c(C)c1` [Example 51, 2-((4S,5S)-1-(4-((1-(4-Methoxy-2,6-dimethylphenyl)piperidin-4-yl)oxy)phenyl)-4-methyl-3-(trifluoromethyl)-4,5-dihydro-1H-pyrazol-5-yl)acetic acid]: the EC50 amounted to 3.06 µM.

Take `COc1ccc(N2CCC(Oc3ccc(N4N=C(C(F)(F)F)[C@@H](C)[C@@H]4CC(=O)O)cc3)CC2)cc1F` [Example 52, 2-((4S,5S)-1-(4-((1-(3-Fluoro-4-methoxyphenyl)piperidin-4-yl)oxy)phenyl)-4-methyl-3-(trifluoromethyl)-4,5-dihydro-1H-pyrazol-5-yl)acetic acid]: the EC50 was found to be 3.62 µM.

As to `COc1cccc(F)c1N1CCC(Oc2ccc(N3N=C(C(F)(F)F)[C@@H](C)[C@@H]3CC(=O)O)cc2)CC1` [Example 54, 2-((4S,5S)-1-(4-((1-(2-Fluoro-6-methoxyphenyl)piperidin-4-yl)oxy)phenyl)-4-methyl-3-(trifluoromethyl)-4,5-dihydro-1H-pyrazol-5-yl)acetic acid], the EC50 amounted to 5.9 µM.

`C[C@@H]1C(C(F)(F)F)=NN(c2ccc(OC3CCN(c4ccc(Cl)cc4)CC3)cc2)[C@H]1CC(=O)O` [Example 56, 2-((4S,5S)-1-(4-((1-(4-Chlorophenyl)piperidin-4-yl)oxy)phenyl)-4-methyl-3-(trifluoromethyl)-4,5-dihydro-1H-pyrazol-5-yl)acetic acid]: the EC50 was 6.27 µM.

On to `C[C@@H]1C(C(F)(F)F)=NN(c2ccc(OC3CCN(c4ncccc4Cl)CC3)cc2)[C@H]1CC(=O)O` [Example 58, 2-((4S,5S)-1-(4-((1-(3-Chloropyridin-2-yl)piperidin-4-yl)oxy)phenyl)-4-methyl-3-(trifluoromethyl)-4,5-dihydro-1H-pyrazol-5-yl)acetic acid], for which the EC50 worked out at 0.293 µM.

Turning to `C[C@@H]1C(C(F)(F)F)=NN(c2ccc(OC3CCN(c4cc(F)ccc4Cl)CC3)cc2)[C@H]1CC(=O)O` [Example 59, 2-((4S,5S)-1-(4-((1-(2-Chloro-5-fluorophenyl)piperidin-4-yl)oxy)phenyl)-4-methyl-3-(trifluoromethyl)-4,5-dihydro-1H-pyrazol-5-yl)acetic acid], the EC50 came to 0.361 µM.

Take `Cc1ccc(Cl)c(N2CCC(Oc3ccc(N4N=C(C(F)(F)F)[C@@H](C)[C@@H]4CC(=O)O)cc3)CC2)c1` [Example 60, 2-((4S,5S)-1-(4-((1-(2-Chloro-5-methylphenyl)piperidin-4-yl)oxy)phenyl)-4-methyl-3-(trifluoromethyl)-4,5-dihydro-1H-pyrazol-5-yl)acetic acid]: the EC50 worked out at 0.364 µM.

For `Cc1ccc(F)c(N2CCC(Oc3ccc(N4N=C(C(F)(F)F)[C@@H](C)[C@@H]4CC(=O)O)cc3)CC2)n1` [Example 61, 2-((4S,5S)-1-(4-((1-(3-Fluoro-6-methylpyridin-2-yl)piperidin-4-yl)oxy)phenyl)-4-methyl-3-(trifluoromethyl)-4,5-dihydro-1H-pyrazol-5-yl)acetic acid], the EC50 was found to be 0.366 µM.

With `C[C@@H]1C(C(F)(F)F)=NN(c2ccc(OC3CCN(c4ccc(F)cc4Cl)CC3)cc2)[C@H]1CC(=O)O` [Example 62, 2-((4S,5S)-1-(4-((1-(2-Chloro-4-fluorophenyl)piperidin-4-yl)oxy)phenyl)-4-methyl-3-(trifluoromethyl)-4,5-dihydro-1H-pyrazol-5-yl)acetic acid], the EC50 is 0.382 µM.

Regarding `C[C@@H]1C(C(F)(F)F)=NN(c2ccc(OC3CCN(c4ccc(Cl)cc4F)CC3)cc2)[C@H]1CC(=O)O` [Example 63, 2-((4S,5S)-1-(4-((1-(4-Chloro-2-fluorophenyl)piperidin-4-yl)oxy)phenyl)-4-methyl-3-(trifluoromethyl)-4,5-dihydro-1H-pyrazol-5-yl)acetic acid], the EC50 amounted to 0.398 µM.

With `C[C@@H]1C(C(F)(F)F)=NN(c2ccc(OC3CCN(c4cc(Cl)ccc4F)CC3)cc2)[C@H]1CC(=O)O` [Example 64, 2-((4S,5S)-1-(4-((1-(5-Chloro-2-fluorophenyl)piperidin-4-yl)oxy)phenyl)-4-methyl-3-(trifluoromethyl)-4,5-dihydro-1H-pyrazol-5-yl)acetic acid], the EC50 was determined as 0.512 µM.

With `CC(C)c1ccc(F)c(N2CCC(Oc3ccc(N4N=C(C(F)(F)F)[C@@H](C)[C@@H]4CC(=O)O)cc3)CC2)c1` [Example 66, 2-((4S,5S)-1-(4-((1-(2-Fluoro-5-isopropylphenyl)piperidin-4-yl)oxy)phenyl)-4-methyl-3-(trifluoromethyl)-4,5-dihydro-1H-pyrazol-5-yl)acetic acid], the EC50 amounted to 0.6 µM.

As to `C[C@@H]1C(C(F)(F)F)=NN(c2ccc(OC3CCN(c4ccccc4)CC3)cc2)[C@H]1CC(=O)O` [Example 72, 2-((4S,5S)-4-Methyl-1-(4-((1-phenylpiperidin-4-yl)oxy)phenyl)-3-(trifluoromethyl)-4,5-dihydro-1H-pyrazol-5-yl)acetic acid], the EC50 is 1.93 µM.

As for `CC(C)c1cccc(N2CCC(Oc3ccc(N4N=C(C(F)(F)F)[C@@H](C)[C@@H]4CC(=O)O)cc3)CC2)c1` [Example 73, 2-((4S,5S)-1-(4-((1-(3-Isopropylphenyl)piperidin-4-yl)oxy)phenyl)-4-methyl-3-(trifluoromethyl)-4,5-dihydro-1H-pyrazol-5-yl)acetic acid], the EC50 turned out to be 2.12 µM.

As for `C[C@@H]1C(C(F)(F)F)=NN(c2ccc(OC3CCN(c4ccccn4)CC3)cc2)[C@H]1CC(=O)O` [Example 74, 2-((4S,5S)-4-Methyl-1-(4-((1-(pyridin-2-yl)piperidin-4-yl)oxy)phenyl)-3-(trifluoromethyl)-4,5-dihydro-1H-pyrazol-5-yl)acetic acid], the EC50 is 2.61 µM.

On to `C[C@@H]1C(C(F)(F)F)=NN(c2ccc(OC3CCN(c4cccnc4)CC3)cc2)[C@H]1CC(=O)O` [Example 75, 2-((4S,5S)-4-Methyl-1-(4-((1-(pyridin-3-yl)piperidin-4-yl)oxy)phenyl)-3-(trifluoromethyl)-4,5-dihydro-1H-pyrazol-5-yl)acetic acid], for which the EC50 stood at 7.68 µM.

Turning to `COc1ccc(Cl)c(N2CCC(Oc3ccc(N4N=C(C(F)(F)F)[C@@H](C)[C@@H]4CC(=O)O)cc3)CC2)n1` [Example 76, 2-((4S,5S)-1-(4-((1-(3-Chloro-6-methoxypyridin-2-yl)piperidin-4-yl)oxy)phenyl)-4-methyl-3-(trifluoromethyl)-4,5-dihydro-1H-pyrazol-5-yl)acetic acid], the EC50 was 0.649 µM.
